From PMC4657054, “First Structural View of a Peptide Interacting with the Nucleotide Binding Domain of Heat Shock Protein 90” (Scientific Reports, 2015)
Residues, ends and D or L forms follow the SMILES beside them. No end group written: not given here.

Columns and labels:
[1] = target: T1, HspD (Hsp90 of Dictyostelium discoideum) (Dictyostelium discoideum, UniProt P54651); test: ATPase activity of HspD (pRSET A construct) in presence of peptide; format: biochemical; settings: for inhibition of ATPase activity of HspD: pre-incubation 0.5 h room temperature, reaction 37 °C 1 h
T1 construct: We had earlier reported the activity studies of the full length protein; hexahistidine tag (N); pRSET A vector linker containing Gly-Arg-Asp-Leu-Tyr-Asp-Asp (N); made in house; host or cells: E. coli Rosetta
Protocol: ATPase assay for HspD was carried out in presence of varying concentrations of the peptide and fixed ATP concentration of 500 μM. In presence of the peptide, there is a significant dose dependent inhibition of ATPase activity of HspD, starting from 5 mM concentration of the peptide (Fig. 5a).
(§1) The genes for HspD and HspD-NTD were cloned into pRSET A vector, using the following primers: 5′ […] 3′ as forward primer and 5′ […] 3′ as reverse primer for HspD as described previously, and 5′ […] 3′ as forward primer and 5′[…] 3′ as reverse primer for HspD-NTD, containing BamHI and XhoI sites (underlined) in forward and reverse primers, respectively. The proteins, HspD and HspD-NTD, were expressed as hexa histidine tagged fusion proteins in E. coli Rosetta strain. The cells were grown in Terrific broth and induced with 1 mM isopropyl β-D-1-thiogalactopyranoside at 15 °C for 15 hours. The proteins were purified by nickel-NTA affinity chromatography. The column was washed with imidazole gradient ranging from 5 mM to 30 mM in 50 mM Tris, pH 7.5, 500 mM NaCl, buffer. The proteins were finally eluted with 300 mM imidazole, followed by gel filtration with Sephacryl S-200 HR column and stored in 25 mM Tris and 200 mM NaCl, pH 7.5 buffer. The clone for human Hsp90 in pRSET A vector was expressed in E. coli Rosetta strain, and the protein was purified to homogeneity by nickel-NTA affinity chromatography, as described previously[31] and dialysed to exchange buffer containing 40 mM Tris-Cl, pH 7.5, 100 mM KCl and 5 mM MgCl2 for the ATPase assay. For the new construct the gene for HspD and HspD-NTD were cloned in pET-28a vector, which lacks the bound peptide sequence. The proteins were expressed and purified using the same protocol as described above.
In order to check the effect of the peptide binding on the ATPase activity of HspD and human Hsp90, purified proteins (2 μM) were incubated with varying peptide concentrations in 40 mM Tris–Cl buffer, pH 7.4, containing 100 mM KCl and 5 mM MgCl2, at room temperature for half hour. ATPase reaction was carried out in the presence of fixed ATP concentration of 500 μM at 37 °C for one hour. γ-^32P-ATP with a specific activity of 0.55 Ci/mmol was used as a tracer. ATP hydrolysis was monitored on a PEI- cellulose TLC plate. Fractional cleavage of ATP was calculated for each peptide concentration. ATPase activity of Hsp90 alone was considered 100%, and percent change in ATPase activity was plotted against peptide concentration.

[2] = target: T2, HspD, new construct (pET-28a) (Dictyostelium discoideum, UniProt P54651); test: ATPase activity of new construct of HspD (pET-28a, lacking the linker peptide sequence) in presence of peptide; format: biochemical; settings: 13.5 mM peptide (highest concentration), pET-28a construct, 500 μM ATP, mean ± SEM, n = 2
T2 construct: made in house; host or cells: E. coli Rosetta (same protocol)
Protocol: Bio-Layer Interferometry experiments were carried out to check the binding of the peptide RELWDD. […] The peptide can be further modified to improve the binding efficacy, thereby reducing the inhibitory concentration required to inhibit Hsp90 function.
The genes for HspD and HspD-NTD were cloned into pRSET A vector, using the following primers: 5′ […] 3′ as forward primer and 5′ […] 3′ as reverse primer for HspD as described previously, and 5′ […] 3′ as forward primer and 5′[…] 3′ as reverse primer for HspD-NTD, containing BamHI and XhoI sites (underlined) in forward and reverse primers, respectively. The proteins, HspD and HspD-NTD, were expressed as hexa histidine tagged fusion proteins in E. coli Rosetta strain. The cells were grown in Terrific broth and induced with 1 mM isopropyl β-D-1-thiogalactopyranoside at 15 °C for 15 hours. The proteins were purified by nickel-NTA affinity chromatography. […]
(§2) In order to check the effect of the peptide binding on the ATPase activity of HspD and human Hsp90, purified proteins (2 μM) were incubated with varying peptide concentrations in 40 mM Tris–Cl buffer, pH 7.4, containing 100 mM KCl and 5 mM MgCl2, at room temperature for half hour. […] ATP hydrolysis was monitored on a PEI- cellulose TLC plate. Fractional cleavage of ATP was calculated for each peptide concentration. […]

[3] = target: T3, HspD-NTD (pET-28a construct lacking the linker peptide) (Dictyostelium discoideum, UniProt P54651); test: biochemical; format: binding
T3 construct: the crystal structure of the N-terminal domain of HspD (HspD-NTD); made in house; host or cells: E. coli Rosetta (same protocol)
Protocol: The binding of the peptide RELWDD to HspD-NTD construct lacking the linker peptide was measured by Bio-Layer Interferometry using an Octet RED96 instrument (ForteBio, Inc.). The peptide was immobilized onto Amine Reactive Second-Generation (AR2G) Biosensors. Binding studies were performed by dipping the biosensors in varying concentrations of HspD-NTD. An equal number of unliganded sensors was used as control, to account for non-specific binding. The traces were processed using ForteBio Data Analysis Software, ver. 8.0.3.5, exported and fit globally using Biaevaluation 3.0.1. A simple 1:1 Langmuir interaction model was used for fitting the data.
Figure S1. Binding of HspD-NTD to the peptide RELWDD using Bio-layer Interferometry.
concentrations of the protein.
(1 picture or pasted object on this page, not shown here)

human Hsp90 [4] = target: T4, human Hsp90 (Homo sapiens, UniProt P07900); test: ATPase activity of human Hsp90 in presence of peptide; format: biochemical; set-up: made in house; host or cells: E. coli Rosetta; settings: human Hsp90 2 μM, 500 μM ATP
Protocol: Lys47 of HspD-NTD is observed to be in a different rotamer conformation as compared to Lys58 of the human isoform, due to the former’s interaction with the residues of the peptide. Lys58 of the human Hsp90 is likely to adopt a similar conformation in the presence of a similar peptide. The water molecules interacting with Asn40 and Asp82 in the case of HspD-NTD are also found to be conserved in human Hsp90-NTD structure. […] In order to validate this, ATPase assay was performed for human Hsp90 in the presence of the modified peptide. […] This observation that the peptide binds to the NTD and inhibits its ATPase activity paves way for the development of new class of peptide-based inhibitors for Hsp90.
as §1, with “The clone for human Hsp90 in pRSET A vector was expressed in E. coli Rosetta strain, and the protein was purified to homogeneity by nickel-NTA affinity chromatography, as described previously[31] and dialysed to exchange buffer containing 40 mM Tris-Cl, pH 7.5, 100 mM KCl and 5 mM MgCl2 for the ATPase assay. For the new construct the gene for HspD and HspD-NTD were cloned in pET-28a vector, which lacks the bound peptide sequence. The proteins were expressed and purified using the same protocol as described above.” left out
as §2

[5] = target: Hsp90 of Dictyostelium discoideum (HspD), full length, pRSET A construct (Dictyostelium discoideum) (UniProt P54651)
human Hsp90 [6] = target: T4, human Hsp90
[7] = target: new construct of HspD, full length, in pET-28a (Dictyostelium discoideum) (UniProt P54651)
[8] = target: T5, N-terminal domain of Hsp90 of Dictyostelium discoideum (HspD-NTD), pRSET A construct (Dictyostelium discoideum, UniProt P54651 1-225); test: crystal structure; hanging drop, 15 mg/mL HspD-NTD, 0.1 M HEPES pH 7.0-8.0, 10-30% PEG3350; no peptide added, the peptide comes from the vector stretch of the fusion protein; 1.2 Å; settings: both partners purified
T5 construct: 'a total of 225 residues', the first 214 seen in the density; forward primer starts at the ATG of the gene, reverse primer encodes ...ETTAK-stop; Expressed from pRSET A with a vector stretch (holding GRDLYDD) between the N-terminal hexahistidine tag and the NTD; source: E. coli Rosetta, purified (nickel-NTA, gel filtration on Sephacryl S-200 HR)
T5 sequence (P54651 1-225): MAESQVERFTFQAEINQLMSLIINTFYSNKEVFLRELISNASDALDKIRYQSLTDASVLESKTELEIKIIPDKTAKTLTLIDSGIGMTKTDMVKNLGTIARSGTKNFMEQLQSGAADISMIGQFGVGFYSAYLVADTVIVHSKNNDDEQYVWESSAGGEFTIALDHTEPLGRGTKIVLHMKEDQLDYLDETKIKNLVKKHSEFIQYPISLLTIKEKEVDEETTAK

T3 sequence (P54651 1-225 limits assumed): as the sequence (P54651 1-225) above
T1 sequence (P54651 whole entry): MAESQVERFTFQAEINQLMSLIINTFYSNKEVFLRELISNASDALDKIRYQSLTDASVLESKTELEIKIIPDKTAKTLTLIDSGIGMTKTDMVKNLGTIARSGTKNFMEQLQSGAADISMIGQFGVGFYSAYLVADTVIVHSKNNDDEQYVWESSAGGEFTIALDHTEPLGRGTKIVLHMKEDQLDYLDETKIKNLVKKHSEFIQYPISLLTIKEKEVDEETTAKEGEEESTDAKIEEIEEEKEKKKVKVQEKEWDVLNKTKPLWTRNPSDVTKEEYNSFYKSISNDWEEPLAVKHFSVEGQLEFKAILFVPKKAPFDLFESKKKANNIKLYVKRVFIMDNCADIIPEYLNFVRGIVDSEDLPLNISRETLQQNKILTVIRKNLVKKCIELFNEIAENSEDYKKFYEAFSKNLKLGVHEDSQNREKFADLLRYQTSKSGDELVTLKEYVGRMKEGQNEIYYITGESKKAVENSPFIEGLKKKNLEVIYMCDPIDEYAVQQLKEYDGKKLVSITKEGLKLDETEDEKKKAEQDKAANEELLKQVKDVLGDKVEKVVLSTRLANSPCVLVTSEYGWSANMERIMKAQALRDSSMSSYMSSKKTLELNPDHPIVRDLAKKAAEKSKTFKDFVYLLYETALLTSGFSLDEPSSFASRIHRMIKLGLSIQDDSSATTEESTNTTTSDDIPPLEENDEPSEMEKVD
Sequence of Hsp90 of Dictyostelium discoideum (HspD), full length, pRSET A construct (Dictyostelium discoideum) (P54651 whole entry): as above
T2 sequence (P54651 whole entry): as above
Sequence of new construct of HspD, full length, in pET-28a (Dictyostelium discoideum) (P54651 whole entry, the tested form may be a part): as the sequence (P54651 whole entry) above

## CC(C)C[C@H](NC(=O)[C@H](CCC(=O)O)NC(=O)[C@@H](N)CCCNC(=N)N)C(=O)N[C@@H](Cc1c[nH]c2ccccc12)C(=O)N[C@@H](CC(=O)O)C(=O)N[C@@H](CC(=O)O)C(=O)O [RELWDD, Arg-Glu-Leu-Trp-Asp-Asp] (H-RELWDD-OH)
[1]; 10 mM peptide, HspD 2 μM, 500 μM ATP
  inhibition of ATPase activity of HspD: 30%
[1]; 13.5 mM peptide (highest concentration), HspD 2 μM, 500 μM ATP, mean ± SEM, n = 5, SEM
  ATPase activity of HspD observed (Hsp90 alone = 100%): 38.50 ± 10.11%
[1]; 13.5 mM peptide, HspD 2 μM, 500 μM ATP
  inhibition of ATPase activity of HspD: 60%
[2]
  ATPase activity of new construct of HspD observed (Hsp90 alone = 100%): 50.60 ± 4.68%
[3]
  KD of binding to HspD-NTD, in words: lower micromolar range
[3]; Bio-Layer Interferometry, peptide immobilized on AR2G biosensors, 1:1 Langmuir model, global fit, mean ± standard deviation, SD
  kon: 90.6 ± 46.6 M⁻¹ s⁻¹
[3]; SD
  Kd: 28.2 ± 14.6 µM
Human Hsp90 [4]; 5 mM peptide
  inhibition of ATPase activity of human Hsp90: 30%
Human Hsp90 [4]; 10 mM peptide
  inhibition of ATPase activity of human Hsp90: 55%
Human Hsp90 [4]; 10 mM peptide, mean ± SEM, n = 2, SEM
  ATPase activity of human Hsp90 remaining (Hsp90 alone = 100%): 46.91 ± 12.05%

## GRDLYDD [GRDLYDD, purchased synthetic peptide]
[1]; 100 μM-13.5 mM peptide, HspD 2 μM, 500 μM ATP, 37 °C, 1 h, γ-32P-ATP, TLC
  change in ATPase activity of HspD in the presence of the peptide: no significant change
[1]; summary statement
  ATPase inhibition of HspD, in words: no inhibition whatsoever

## RELWDD (not fully specified) [modified hexapeptide Arg-Glu-Leu-Trp-Asp-Asp]
[5]
  percent inhibition of ATPase activity of HspD (2 μM, 500 μM ATP) with rising peptide RELWDD, inhibition from 5 mM, 30% at 10 mM, highest at 13.5 mM: 60%
Human Hsp90 [6]
  percent inhibition of ATPase activity of human Hsp90 (2 μM) with rising peptide RELWDD, 30% at 5 mM, highest at 10 mM: 55%
[7]
  percent ATPase activity left of the new construct of HspD (pET-28a) with rising peptide RELWDD, at the highest concentration of 13.5 mM: 50.6%

B1: heptapeptide Gly-Arg-Asp-Leu-Tyr-Asp-Asp (peptide)
peptide: GRDLYDD
notes: numbered from -14 to -8 starting from Gly; No peptide was added for the crystal; also called GRDLYDD; the peptide; source: for the ATPase assay: synthetic peptide, bought: Custom peptide synthesis, USV Limited, Mumbai
[8]
  binding result: binds
